From patent US6174858A, “Conjugates useful in the treatment of prostate cancer” (Merck & Co., Inc., priority 1998, dated 2001) come the findings set out here.

Like-named read-outs stand apart in the source and are kept apart here. Square brackets hold non-standard residues; d marks the D form. dAc‑VIN = 4-desacetylvinblastine; Chg = N[C@H](C(=O)O)C1CCCCC1

For one assay, the target named is T1, free PSA (York PSA) (Homo sapiens, UniProt P07288).
T1 construct: purchased York ('York PSA')
The assay is described as follows: Recognition of oligopeptide-vinca drug conjugates by free PSA (time to 50% cleavage, HPLC). It is filed as biochemical. Conditions: for Time to 50% Substrate Cleavage by York PSA: conjugate to PSA molar ratio 100 to 1, pH 7.4. As for the experimental part: The reaction was quenched after various reaction times by the addition of trifluoroacetic acid (TFA) to a final 1% (volume/volume). Alternatively the reaction is quenched with 10 mM ZnCl2. The quenched reaction was analyzed by HPLC on a reversed-phase C18 column using an aqueous 0.1%TFA/acetonitrile gradient. The amount of time (in minutes) required for 50% cleavage of the noted oligopeptide-cytotoxic agent conjugates with enzymatically active free PSA were then calculated.

In assay [1] the test system is LNCaP prostate tumor cells. The assay is described as follows: In vitro cytotoxicity, Alamar Blue assay, LNCaP cell kill. It is filed as cell-based. The protocol:
(§1) In vitro Assay of Cytotoxicity of Peptidyl Derivatives of Vinca Drugs
(§2) Specifically, cell cultures of LNCap prostate tumor cells, Colo32ODM cells (designated C320) or T47D cells in 96 well plates was diluted with medium containing various concentrations of a given conjugate (final plate well volume of 200 μl). […] The cells were incubated for 3 days at 37° C., 20 μl of Alamar Blue is added to the assay well. The cells were further incubated and the assay plates were read on a EL-310 ELISA reader at the dual wavelengths of 570 and 600 nm at 4 and 7 hours after addition of Alamar Blue. Relative percentage viability at the various concentration of conjugate tested was then calculated versus control (no conjugate) cultures and an EC50 was determined. Unless otherwise indicated, the acetate salt of the conjugate was tested.
For orientation: The colour change of resazurin is a common sign of viable cells or microbes.

The test system of the next assay is Colo320DM cells. The assay is described as follows: In vitro cytotoxicity, Alamar Blue assay, Colo320DM control cell line (does not express free PSA). The class given is cell-based. The protocol: as §1
as §2, with “The cytotoxicities of the cleaveable oligopeptide-vinca drug conjugates, prepared as described in Example 3, against a line of cells which is known to be killed by unmodified vinca drug was assessed with an Alamar Blue assay. Specifically,” for “Specifically,”

Setting [2] is: 72 HRS, read-out: LNCaP Cell Kill in 72 HRS. {48 HRS} EC 50.
Setting [3] is: 72 HRS, read-out: Colo320DM EC 50.
Where [4] appears, read: 72 HRS, second part of Table 2, read-out: LNCaP Cell Kill in 72 HRS. {48 HRS} EC 50.
[5] abbreviates: 72 HRS, second part of Table 2, read-out: Colo320DM EC 50.

T1 sequence (P07288 25-261): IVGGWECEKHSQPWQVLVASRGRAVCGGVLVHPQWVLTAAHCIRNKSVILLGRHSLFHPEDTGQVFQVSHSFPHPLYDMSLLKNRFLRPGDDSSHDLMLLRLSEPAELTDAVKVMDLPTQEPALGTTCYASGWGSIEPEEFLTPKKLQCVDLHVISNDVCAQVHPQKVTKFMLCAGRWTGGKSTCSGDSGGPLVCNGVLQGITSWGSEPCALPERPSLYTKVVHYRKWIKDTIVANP

Turning to “4-O-(Ac-Abu-SSChgQ-SP)-dAc-VIN: peptide-vinca drug conjugate, SEQ ID NO 90 (XSSXQSP; N-acetyl; desacetylvinblastine conjugate)”, in the assay with free PSA (York PSA), the “Time to 50% Substrate Cleavage by York PSA” value turned out to be 80 min. In addition, the EC50 in assay [1] (setting [2]) is 9.7 µM; in assay [1] (in 0.5% FBS, read-out: LNCaP Cell Kill EC 50 in 0.5% FBS), over 5 µM; with Colo320DM cells (setting [3]) it was 14.5 µM; in the assay on Colo320DM cells (in 0.5% FBS, read-out: Colo320DM EC 50 in 0.5% FBS) it was 23.8 µM.

With “4-O-(Ac-SChgQ-SSP)-dAc-VIN: peptide-vinca drug conjugate, SEQ ID NO 116 (XXQSSP; N-acetyl; desacetylvinblastine conjugate)”, the “Time to 50% Substrate Cleavage by York PSA” value in the assay with free PSA (York PSA) stood at 15 min. The values for the EC50 (in assay [1] (setting [4]); in the assay on Colo320DM cells (setting [5])) were 15 µM and 20 µM, respectively.

As for “4-O-(Ac-SSChgQS-Gly)-(dAc)-VIN: peptide-vinca drug conjugate, SEQ ID NO 98 (Ac-SS[Chg]QSG-{dAc‑VIN}; also: C-terminal ester to 4-OH of desacetylvinblastine)”, the “Time to 50% Substrate Cleavage by York PSA” value with free PSA (York PSA) was found to be 55 min. The EC50 (in assay [1] (setting [2]); with Colo320DM cells (setting [3])) was 16.3 µM throughout.

As for “4-O-[Ac-4-trans-L-HypSSChg(dQ)SSP]-dAc-VIN: peptide-vinca drug conjugate, SEQ ID NO 114 (XSSXXSSP; N-acetyl; D-Gln; desacetylvinblastine conjugate)”, in the assay with free PSA (York PSA) (10 X ENZ, o/n), the “Substrate cleavage by York PSA, 10 X ENZ o/n” value amounted to 0%. The results for the EC50 (in assay [1] (setting [4]); with Colo320DM cells (setting [5])) were 12.2 µM and 43.7 µM, respectively.

For the substance “4-O-[Ac-4-trans-L-HypSSChgQSS-Pip]-dAc-VIN: peptide-vinca drug conjugate, SEQ ID NO 124 (XSSXQSSX; N-acetyl; desacetylvinblastine conjugate)”, in the assay with free PSA (York PSA), the “Time to 50% Substrate Cleavage by York PSA” value came to 13 min. Besides, the EC50 in assay [1] (setting [4]) came out at 7.5 µM; in the assay on Colo320DM cells (setting [5]), 60 µM.

Consider “4-O-[Ac--SChgQSS-Sar]-dAc-VIN: peptide-vinca drug conjugate, SEQ ID NO 118 (XXQSSG; N-acetyl; desacetylvinblastine conjugate)”, for which, in the assay with free PSA (York PSA), the “Time to 50% Substrate Cleavage by York PSA” value amounted to 39 min. The EC50 in assay [1] (setting [4]) is 0.8 µM; with Colo320DM cells (setting [5]) it was 3 µM.

Regarding “Ac-4-trans-L-HypSSChgQS-(4-O-Ala)-(dAc)-VIN: peptide-vinca drug conjugate, SEQ ID NO 103 (XSSXQSA; N-acetyl; desacetylvinblastine conjugate)”, the “Time to 50% Substrate Cleavage by York PSA” value with free PSA (York PSA) was 23 min. Besides, the EC50 in assay [1] (setting [4]) came out at 12.5 µM; in the assay on Colo320DM cells (setting [5]) it was 32.5 µM.

For the substance “Ac-AbuSSChgQ-SS-(4-O-P)-dAc-VIN: peptide-vinca drug conjugate, SEQ ID NO 109 in Table 1, 108 in Table 2 (XSSXQSSP; N-acetyl; desacetylvinblastine conjugate)”, the “Time to 50% Substrate Cleavage by York PSA” value in the assay with free PSA (York PSA) was 7 min. The EC50 stood at 12.8 µM in assay [1] (setting [4]) and 28.4 µM in the assay with Colo320DM cells (setting [5]).

As for “des-Acetylvinblastine-4-O-(N-Acetyl-4-trans-L-Hyp-Ser-Ser Chg-Gln-Ser-Ser-Pro) ester acetate (XSSXQSSP; N-acetyl; desacetylvinblastine ester; acetate salt)”, in the assay with free PSA (York PSA), the “Time to 50% Substrate Cleavage by York PSA” value came out at 17 min. Also, the EC50 is 3 µM in assay [1] (setting [2]) and 12 µM with Colo320DM cells (setting [3]).
